Entries after “also recorded” stand apart in the source; their conditions may differ.
Assays:
[1] = tested on: HNSCC Cal27 cells injected intravenously (lung metastases); assay: Experimental lung metastasis NSG mouse model; assay type: in vivo, NSG mice; settings: for Median survival time: Lung metastasis model, fusion toxin or DT390 50 μg/kg IP, erlotinib 20 mg/kg gavage, once daily for 10 days from day 4; for number of metastases in the lungs: second cohort, euthanized 10 days after tumor cell inoculation
Procedure: FIG. 8A-C presents data from in vivo efficacy analysis of the human EGF fusion toxins using an experimental lung metastasis NSG mouse model. FIG. 8A presents data from a first animal study for survival curve analysis. NSG mice were IV injected with one million human EGFR^+ HNSCC Cal27 cells on day 0. Mice were injected intraperitoneally (IP) with the EGF fusion toxin or DT390 at 50 μg/kg, once daily for 10 consecutive days starting on day 4 after the tumor cell injection. […] The schedule of the fusion toxin and tumor cell injection is pictured in the schematic below the survival curve. The vertical arrows indicate the days on which the tumor cells or the fusion toxins were injected. *P<0.05; **P<0.01; ***P<0.001; ****P<0.0001. The P-values for the survival curves were calculated using the Mantel-Cox log-rank test (GraphPad Prism9.0).
FIGS. 8B and C present data from a second animal study for a pathology analysis. […] The mice were euthanized on day 10 after tumor cell injection when the first mouse in the DT390 group reached the end point. FIG. 8B presents H&E pictures of lung metastases. Metastases are indicated in the upper panels by black arrowheads. Scale bar: 500 μm. The lower panels are higher magnification pictures of the area in black rectangles in the upper panels. […] Error bars indicate standard deviation (SD).
(§1) HNSCC tumor cells were injected via the following routes: 1) Flank-xenograft solid tumor model: eight million human HNSCC Cal27 tumor cells were subcutaneously injected into the right flank at day 0. The tumor-bearing mice were randomly divided into the four experimental groups when the tumors were palpable at day 3. The tumor volume was measured using digital vernier calipers every 3 days and calculated according to the formula: volume (mm^3)=(length×width×width)/2. 2) Tongue-orthotopic solid tumor model: eight million human HNSCC Cal27 tumor cells in 50 μl DMEM were injected into the tongue at day 0 following isoflurane anesthesia and the tumor-bearing mice were randomly divided into the planned four experimental groups at day 3. 3) Experimental metastasis model: one million human HNSCC Cal27 tumor cells in 200 μl DMEM were intravenously injected at day 0 via tail vein and the tumor-bearing mice were randomly divided into the four experimental groups at day 3.
(§2) Mono-EGF-IT (mEGF-IT), bEGF-IT, or DT390 was intraperitoneally injected (IP) starting at day 4 at 50 μg/kg, once daily for 10 consecutive days. […] The injected animals were observed daily for signs and symptoms of illness and scored at least twice weekly based on the parameters as previously reported (Peraino et al. (2013), J. Immunol. Methods 398-399, 33-43, which is hereby incorporated by reference in its entirety; Wang et al., 2015). The animals were humanely euthanized when the score exceeded the limit or the animal lost more than 15% of its pre-injection body weight. In addition, to assess whether the fusion toxins are toxic to the animals, NSG mice injected with the fusion toxins only were also included as control.
The third in vivo efficacy model was an experimental metastasis model. One million of HNSCC Cal27 tumor cells were intravenously injected via the tail vein of NSG mice at day 0. The EGF fusion toxins were injected intraperitoneally (IP) starting on day 4 at 50 μg/kg daily for 10 consecutive days. […] To further assess the effects of the fusion toxins on metastasis, the experimental metastasis study was repeated with a second cohort of NSG mice, and all mice were euthanized 10 days after tumor cell inoculation, when the first mouse in the DT390 group reached the end point. The data are depicted in FIGS. 8B and C.

[2] = tested on: HNSCC Cal27 subcutaneous xenografts; assay: Flank-xenograft solid tumor-bearing NSG mouse model; assay type: in vivo, NSG mice; settings: for Median survival time: Subcutaneous xenograft model, fusion toxin or DT390 50 μg/kg IP, erlotinib 20 mg/kg gavage, once daily for 10 days from day 4
Excerpt: FIGS. 6A-6D presents the data from in vivo efficacy analysis of the human EGF fusion toxins against subcutaneous xenografts in NSG mice from two animal studies. FIG. 6A depicts the survival curve for NSG mice injected with Cal27 cells. […] FIGS. 6B-D depict tumor volume and weight data from the second study performed with a second cohort of NSG mice. […] Mice were euthanized on day 14 after tumor cell injection, when the first mouse in the DT390 group reached the end point. FIG. 6B: Tumor volumes were measured periodically, and the growth kinetics of the four groups were plotted. FIG. 6B depicts the tumor growth kinetics for a period of 14 days. FIG. 6C presents a bar graph representing the tumor weights at day 14. FIG. 6D depicts images of harvested tumors on day 14. Scale bar: 1 cm. FIGS. 6A-6C: *P<0.05; **P<0.01; ***P<0.001; ****P<0.0001; ns: not significant. The P-values for the survival curves in FIG. 6A were calculated using the Mantel-Cox log-rank test and that for the comparisons in FIGS. 6B and C were calculated using the two-tailed Student t-test (GraphPad Prism 9.0.0).
as §1, §2
In vivo efficacy of the mEGF-IT and bEGF-IT against HNSCC was assessed using three immunodeficient tumor-bearing NSG mouse models. The first in vivo efficacy model was a flank-xenograft solid tumor-bearing NSG mouse model. Eight million Cal27 tumor cells were injected subcutaneously (SQ) into the right flank at day 0. The EGF fusion toxins were injected intraperitoneally (IP) starting on day 4 at 50 μg/kg daily for 10 consecutive days. […] The reduction of the tumor volumes, weights and sizes (FIGS. 6B-6D) were all consistent with the median survival prolongation.

Compound | Median survival time [1] [days] | number of metastases in the lungs [1] | Median survival time [2] [days] | Median survival time ([2]; listed as bEGF-IT) [days] | decrease of tumor sizes and weights ([2]; flank xenograft, second cohort, day 14)
C#Cc1cccc(Nc2ncnc3cc(OCCOC)c(OCCOC)cc23)c1 [Erlotinib] | 30 | reduced compared with the DT390-negative control group | >60 | – | –
Bi-EGF IT: DT390 joined by G4S to two human EGF domains linked by (G4S)3, C-terminal 6×His tag; SEQ ID NO: 10 | 38 | reduced compared with the DT390-negative control group; also recorded: reduction was greater in the bi-EGF-IT group than in the mono-EGF-IT group | >60 | 61 | about 80%
